Laboratory results published in US20180280326A1, “MEDICAMENT FOR PREVENTING OR INHIBITING ACUTE KIDNEY INJURY” (National Cerebral and Cardiovascular Center, priority 2015, published 2018).

Experiments:
[1] = system: AT2 receptor deficient mice, CDDP induced acute kidney injury; experiment: CDDP induced acute kidney injury-inhibiting effects on AT2 receptor deficient mice; assay type: in vivo; conditions: male AT2 receptor deficient mice; CDDP 15 mg/kg i.p.; oral 30 mg/kg per day from 3 days before; 72 hours after CDDP
Procedure: To 8- to 12-week-old male AT2 receptor deficient mice (n=3 or 5 to 7), 15 mg/kg of cisplatin (CDDP, disease group) or 30 mL/kg of phosphate buffered saline (PBS, normal group) was intraperitoneally administered.
A 0.2 mg/mL aqueous solution of Compound C in 0.5% carboxymethylcellulose (CMC) was prepared and orally administered so that Compound C was at a dose of 30 mg/kg per day from 3 days before the start of the experiment, and the mice were subjected to the experiment. To the control group, the same dose of 0.5% CMC aqueous solution was administered.
At 72 hours after CDDP administration, incision in the abdomen was performed under sevoflurane anesthesia, and the whole blood was collected from the abdominal great vein using a syringe. The blood was centrifuged, and the supernatant (serum) was collected. The serum was stored at −20 to −80° C. Immediately before dissection, spot urine was collected from each mouse.
Using the measurement kits, urinary albumin (Alb) and urinary creatinine (Cr) were measured for the calculation of the urinary Alb/Cr ratio, and also blood urea nitrogen (BUN) was measured. The results are shown in FIG. 3 (urinary Alb/Cr ratio) and FIG. 4 (BUN).

human renal cells = conditions: LPS as an endotoxin acting on human renal cells; Non Patent Literature 6; cited from earlier work

Compound	inhibition of acute kidney injury caused by CDDP (urinary Alb/Cr ratio, FIG. 3; BUN, FIG. 4) [1]	level of IL-6 (human renal cells)	level of TNF-α (human renal cells)
CCN(CC)C(=O)[C@H](Cc1ccc(NC(=O)c2ccccc2)cc1)C(=O)NS(=O)(=O)c1ccc2ccccc2c1 [Compound C, (2S)-2-[4-(benzoylamino)benzyl]-N,N-diethyl-N′-(2-naphthylsulfonyl)malonamide]	not effective		
CCCCOC(=O)NS(=O)(=O)c1sc(CC(C)C)cc1-c1ccc(Cn2ccnc2)cc1 [Example C21]		lowered	lowered
